The target of the assay is T1, PDGF-receptor beta enzyme comprising the tyrosine kinase domain (Homo sapiens, UniProt P09619).
T1 construct: from amino acid 545 to 1106 of GenBank Access NO: AAA36427
Description: Inhibition of PDGF-receptor kinase activity (cell-free, PLC1 peptide, 33P Flashplate). Particulars: for inhibition at 10 µM: read-out: Percent Inhibition @ 10 uM. In kind it is biochemical. The essentials:
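Recombinant kinase domain (aa 545–1106) phosphorylated a biotinylated PLC1 peptide with 5 μM ATP plus 33P-γ-ATP, in Tris pH 8, MgCl2, Na3VO4 and 1 mM DTT, for 60 min at 30 °C. Retained 33P was counted after washing. IC50 is the concentration halving activity versus no-inhibitor reactions.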

[1] abbreviates: PDGF-R kinase activity, compound at 10 uM.
Where [2] appears, read: PDGF-R kinase activity, read-out: IC50.
[3] abbreviates: read-out: IC50 (μM) on PDGF-R kinase activity.

Where two headings read alike, the source gives them in different places.

T1 sequence (P09619 545-1106): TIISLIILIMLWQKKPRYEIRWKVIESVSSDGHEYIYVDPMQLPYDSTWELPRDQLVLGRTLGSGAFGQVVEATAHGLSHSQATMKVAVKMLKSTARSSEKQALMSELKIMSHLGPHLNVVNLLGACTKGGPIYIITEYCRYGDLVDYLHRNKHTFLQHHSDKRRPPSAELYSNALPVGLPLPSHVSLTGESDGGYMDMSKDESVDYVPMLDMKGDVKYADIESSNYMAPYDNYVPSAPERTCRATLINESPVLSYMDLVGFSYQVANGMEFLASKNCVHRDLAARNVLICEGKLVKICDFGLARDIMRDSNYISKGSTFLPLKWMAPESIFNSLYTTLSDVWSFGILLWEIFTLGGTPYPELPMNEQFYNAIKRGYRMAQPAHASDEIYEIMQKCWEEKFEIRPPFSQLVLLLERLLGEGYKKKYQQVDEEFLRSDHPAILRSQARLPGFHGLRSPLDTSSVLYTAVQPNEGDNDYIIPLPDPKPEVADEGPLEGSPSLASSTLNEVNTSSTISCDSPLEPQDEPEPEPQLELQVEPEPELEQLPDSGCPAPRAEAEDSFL

As for `Fc1ccc2c(c1)Cc1c-2n[nH]c1NCc1ccc(F)c(F)c1` [Compound 308, (3,4-Difluoro-benzyl)-(6-fluoro-2,4-dihydro-indeno[1,2-c]pyrazol-3-yl)-amine], the inhibition – broadly, the drop in the measured response relative to a control, in per cent – at 10 µM under setting [1] is 14%. In addition, the IC50 (commonly the midpoint of a concentration-inhibition curve) under setting [2] was 0.511 µM.

For the molecule `Cc1cccc2c1Cc1c-2n[nH]c1Nc1cccnc1` [Compound 100, (5-Methyl-2,4-dihydro-indeno[1,2-c]pyrazol-3-yl)-pyridin-3-yl-amine], the inhibition at 10 µM under setting [1] was determined as 81%. Also, the IC50 under setting [2] was determined as 1.72 µM. Regarding `COc1cc2c(cc1OC)-c1n[nH]c(Nc3ccccc3C(F)(F)F)c1C2` [Compound 28, (6,7-Dimethoxy-2,4-dihydro-indeno[1,2-c]pyrazol-3-yl)-(2-trifluoromethyl-phenyl)-amine], the inhibition at 10 µM under setting [1] amounted to 96%. Under setting [2], the 50% inhibitory concentration (IC50) came out at 19.1 µM. On to `CCOc1cccc(Nc2[nH]nc3c2C(C)(C)c2cc(OC)c(OC)cc2-3)c1` [Compound 489, (6,7-Dimethoxy-4,4-dimethyl-2,4-dihydro-indeno[1,2-c]pyrazol-3-yl)-(3-ethoxy-phenyl)-amine], for which the inhibition at 10 µM under setting [1] stood at 25.5%.

Consider `CC1c2ccccc2-c2n[nH]c(Nc3cccc(C(F)(F)F)c3)c21` (stereo not drawn) [Compound 114, (4-Methyl-2,4-dihydro-indeno[1,2-c]pyrazol-3-yl)-(3-trifluoromethyl-phenyl)-amine], for which the inhibition at 10 µM under setting [1] was found to be 80%. Moreover, under setting [2], the concentration for half-maximal inhibition (IC50) amounted to 1.37 µM. For `COc1cc2c(cc1OC)C(C)c1c-2n[nH]c1Nc1cc(F)cc(F)c1` (stereo not drawn) [Compound 251, (3,5-Difluoro-phenyl)-(6,7-dimethoxy-4-methyl-2,4-dihydro-indeno[1,2-c]pyrazol-3-yl)-amine], in that order: 84% and 0.322 µM. On to `Cc1ccc(Cl)cc1Nc1[nH]nc2c1Cc1ccccc1-2` [Compound 338, (5-Chloro-2-methyl-phenyl)-(2,4-dihydro-indeno[1,2-c]pyrazol-3-yl)-amine], for which the inhibition at 10 µM under setting [1] is 78.5%. Moreover, the half-maximal inhibitory concentration (IC50) under setting [2] was found to be 0.451 µM. For `COc1cc2c(cc1OC)-c1c(c(Nc3cccc(F)c3)nn1CC(N)=O)C2` [Compound 534, 2-[3-(3-Fluoro-phenylamino)-6,7-dimethoxy-4H-indeno[1,2-c]pyrazol-1-yl]-acetamide], the inhibition at 10 µM under setting [1] is 94%. For the same molecule, the 50% inhibitory concentration (IC50) under setting [2] was found to be 0.933 µM. The like results for `COc1cc2c(cc1OC)-c1c(c(Nc3cccc(F)c3)nn1COC(=O)C(C)(C)C)C2` [Compound 409, 2,2-Dimethyl-propionic acid 3-(3-fluoro-phenylamino)-6,7-dimethoxy-4H-indeno[1,2-c]pyrazol-1-ylm ethyl ester] were, in that order, 85.5% and 0.108 µM. Turning to `COc1cc2c(cc1OC)-c1c(c(Nc3cccc(F)c3)nn1C(=O)NCCNC(=O)C(C)C)C2` [Compound 525, 3-(3-Fluoro-phenylamino)-6,7-dimethoxy-4H-indeno[1,2-c]pyrazole-1-carboxylic acid (2-isobutyrylamino-ethyl)-amide], the inhibition at 10 µM under setting [1] was 33%. Further, the IC50 under setting [2] came to 43.2 µM. For `COc1cc2c(cc1OC)-c1nn(C(=O)Nc3cccc(F)c3)c(Nc3cccc(F)c3)c1C2` [Compound 395, 3-(3-Fluoro-phenylamino)-6,7-dimethoxy-4H-indeno[1,2-c]pyrazole-2-carboxylic acid (3-fluoro-phenyl)-amide], in that order: 88% and 0.686 µM. The like results for `CCC1c2cc(OC)c(OC)cc2-c2nn(C(=O)COC)c(Nc3cccc(Br)c3)c21` (stereo not drawn) [Compound 515, 1-[3-(3-Bromo-phenylamino)-4-ethyl-6,7-dimethoxy-4H-indeno[1,2-c]pyrazol-2-yl]-2-methoxy-ethanone] were, in that order, 90% and 0.136 µM. The like results for `COc1cc2c(c(NC(C)=O)c1OC)Cc1c-2n[nH]c1Nc1cccc(F)c1` [Compound 557, N-[3-(3-Fluoro-phenylamino)-6,7-dimethoxy-2,4-dihydro-indeno[1,2-c]pyrazol-5-yl]-acetamide] were, in that order, 102% and 0.0325 µM. `CN(C)CCCOc1ccc2c(c1)Cc1c-2n[nH]c1Nc1cc(F)ccc1F` [Compound 163, (2,5-Difluoro-phenyl)-[6-(3-dimethylamino-propoxy)-2,4-dihydro-indeno[1,2-c]pyrazol-3-yl]-amine]: the inhibition at 10 µM under setting [1] amounted to 32%. The concentration for half-maximal inhibition (IC50) under setting [2] is 22.7 µM. The like results for `COc1cc2c(cc1OC)-c1n[nH]c(Nc3ccc(Cl)c(Cl)c3)c1C2` [Compound 18, (3,4-Dichloro-phenyl)-(6,7-dimethoxy-2,4-dihydro-indeno[1,2-c]pyrazol-3-yl)-amine] were, in that order, 65% and 0.23 µM. For `COc1cc2c(cc1OC)C(C)c1c-2n[nH]c1Nc1cccnc1Cl` (single isomer, unassigned) [Compound 559, (2-Chloro-pyridin-3-yl)-(6,7-dimethoxy-4-methyl-2,4-dihydro-indeno[1,2-c]pyrazol-3-yl)-amine], in that order: 102% and 0.0371 µM. `CCC1c2cc(OC)c(OC)cc2-c2n[nH]c(Nc3cccc(Br)c3)c21` (single isomer, unassigned) [Compound 570, *S-(3-Bromo-phenyl)-(6,7-dimethoxy-4-ethyl-2,4-dihydro-indeno[1,2-c]pyrazol-3-yl)-amine]: the “Percent Inhibition @ 10 uM” value (PDGF-R kinase activity, compound at 10 uM, 10 µM) came to 77.5%. Moreover, the half-maximal inhibitory concentration (IC50) under setting [3] was determined as 2.05 µM. `COc1ccc(Nc2[nH]nc3c2Cc2cc(OC)c(OC)cc2-3)cc1OC` [Compound 49, (6,7-Dimethoxy-2,4-dihydro-indeno[1,2-c]pyrazol-3-yl)-(3,4-dimethoxy-phenyl)-amine]: the inhibition at 10 µM under setting [1] came to 72%. In addition, the half-inhibitory concentration (IC50) under setting [2] worked out at 3.07 µM. For the molecule `COc1cc2c(c3nc(C)oc13)CC1C(Nc3cccc(F)c3)=NN=C21` (stereo not drawn) [Compound 605, (3-Fluoro-phenyl)-(4-methoxy-2-methyl-7,9-dihydro-3-oxa-1,6,7-triaza-cyclopenta[b]-as-indacen-8-yl)-amine], under setting [1], the inhibition at 10 µM stood at 97.5%. The IC50 under setting [3] is 0.0051 µM. With `COc1cc2c(cc1OC)-c1n[nH]c(Nc3cccc(C(=O)NCCO)c3)c1C2` [Compound 297, 3-(6,7-Dimethoxy-2,4-dihydro-indeno[1,2-c]pyrazol-3-ylamino)-N-(2-hydroxy-ethyl)-benzamide], the inhibition at 10 µM under setting [1] was 90.5%. Also, the IC50 under setting [2] was determined as 0.275 µM. For the molecule `COc1ccc(Nc2[nH]nc3c2C(C)c2ccccc2-3)c(OC)c1` (stereo not drawn) [Compound 111, (2,4-Dimethoxy-phenyl)-(4-methyl-2,4-dihydro-indeno[1,2-c]pyrazol-3-yl)-amine], the inhibition at 10 µM under setting [1] was 95%. In addition, the 50% inhibitory concentration (IC50) under setting [2] turned out to be 0.11 µM. For `COc1cc2c(cc1OC)-c1nn(COC(C)=O)c(Nc3cccc(F)c3)c1C2` [Compound 497, Acetic acid 3-(3-fluoro-phenylamino)-6,7-dimethoxy-4H-indeno[1,2-c]pyrazol-2-ylmethyl ester], in that order: 97% and 0.0777 µM. With `COc1cc2c(cc1OC)-c1n[nH]c(Nc3ccccn3)c1C2` [Compound 562, (6,7-Dimethoxy-2,4-dihydro-indeno[1,2-c]pyrazol-3-yl)-pyridin-2-yl-amine], under setting [1], the inhibition at 10 µM was found to be 93.5%. Moreover, the IC50 under setting [2] is 0.084 µM.

Values taken from US7196110B2, “N-substituted tricyclic 3-aminopyrazoles as inhibitors for the treatment of cell proliferative disorders” (Janssen Phamaceutica N.V., priority 2002, dated 2007).
